# Data published in patent US4745117A, “Imide derivatives and compositions for use as antipsychotic agents” (Sumitomo Pharmaceuticals Company, Limited, priority 1985, dated 1988).
# Read-outs that look alike come from different tables or passages of the source.
# What was measured:
# [1] = tested on: climbing behavior induced by apomorphine; assay: Neuroleptic activity: anti-climbing behavior test (suppression of climbing behavior induced by apomorphine); format: in vivo, mice (dd strain male); conditions: for ED50: Mus musculus, read-out: ED50 (50% effective dose), anti-climbing
# catalepsy = assay: Extrapyramidal activity: catalepsy inducing activity test; design: species or system mice (dd strain male); conditions: mouse, in vivo
# Experimental: (§1) (2) Extrapyramidal activity
# (§2) This activity was examined through the catalepsy inducing activity test as described in M. Fujiwara et al.: Folia Formacol., Japon: 85, 259-274 (1985). A designated amount of the test compound was orally administered to dd strain male mice (bodyweight, 22 to 27 g), and 1 and 4 hours after the administration, catalepsy induction was checked according to the Wirth et al method. Thus, each of the animals was forced to hang the forepows onto a metal pole of 2.5 mm in diameter horizontally situated at a height of 5 cm to maintain a strained state. The test was made with three replications, and the presence of at least one case where the animal was kept in the strained state over a period of 30 seconds was deemed to have caused catalepsy.
# [2] = as above; design: species or system mice (dd strain male); conditions: mouse, in vivo
# Experimental: as §1, §2
# [3] = 50 min, Oral administration, apomorphine 1.0 mg/kg s.c. after 50 minutes, mice
# [4] = sc, Subcutaneous administration, apomorphine 1.0 mg/kg s.c., mice
SMILES,ED50 ([1]; sc) [mg/kg],"neuroleptic activity (anti-climbing activity), in words ([1]; route not stated)","extrapyramidal activity (catalepsy inducing activity), in words (catalepsy)","TD50 ([2]; oral administration, checked 1 and 4 hours after administration, mice, read-out: ED50, catalepsy induction) [mg/kg]","ED50 [1, 3] [mg/kg]","ED50 [1, 4] [mg/kg]",TD50 ([2]; po) [mg/kg]
"O=C(CCCN1CCC(O)(c2ccc(Cl)cc2)CC1)c1ccc(F)cc1 [Haloperidol, 4-[4-(4-chlorophenyl)-4-hydroxy-1-piperidinyl]-1-(4-fluorophenyl)-1-butanone]",0.21,significant neuroleptic activity,considerably high level of extra-pyramidal activity,< 5,–,–,–
"O=C1CC2(CCCC2)CC(=O)N1CCCCN1CCN(c2nsc3ccccc23)CC1 [Tiaspiron, 8-[4-(3-benzisothiazolyl)-1-piperazinylbutyl]-8-azaspiro[4,5]decane-7,9-dione]",–,–,–,–,> 10,0.23,–
"O=C1[C@@H]2[C@H]3CC[C@H](C3)[C@@H]2C(=O)N1CCCCN1CCN(c2nsc3ccccc23)CC1 [Compound No. 1, N-[4-{4-(1,2-Benzisothiazol-3-yl)-1-piperazinyl}butyl]bicyclo[2.2.1]heptane-2,3-di-exo-carboximide]",–,–,–,–,2,0.15,68.1
"O=C1[C@@H]2[C@@H]3CC[C@@H](C3)[C@@H]2C(=O)N1CCCCN1CCN(c2nsc3ccccc23)CC1 [Compound No. 5, N--[4-{4-(1,2-Benzisothiazol-3-yl)-1-piperazinyl}butyl]bicyclo[2.2.1]heptane-2,3-di-endo-carboximide]",–,–,–,–,2.6,0.13,112
